{"source": "patent US20200239530A1", "about": "“COMPOUNDS AND METHODS OF MODULATING PROTEIN DEGRADATION” (Vividion Therapeutics, Inc., priority 2017, published 2020)", "type_in_all_cases": "binding", "key": {"[1]": {"target": "ANAPC16 Anaphase-promoting complex subunit 16 (Homo sapiens, UniProt Q96DE5)", "experiment": "Cysteine liganding, probe competition", "set-up": "endogenous in cells", "method": "(§1) Cells were resuspended in cold PBS on ice and sonicated with a probe sonicator to achieve lysis. 200 μL of lysate containing 5 mg/ml proteome was treated with 2 μL of 100× compound stock in a 2-mL deep-well plate. The treated lysate was subsequently incubate at 25° C. for 1 hr with shaking at 600 rpm. The treated lysate was further incubated with 2 μL of 10 mM desthiobiotin iodoacetamide probe at 25° C. for 1 hr with shaking at 600 rpm. Next, the lysate was further treat with 20 μL of solution of PBS containing 11 mM MgSO4 and 2.5% Turbonuclease stock and incubated at 25° C. for 20 minutes with shaking at 600 rpm. 1.7 mL ice-cold acetone was added to each well and incubated at −20° C. for 2 hr, followed by max speed (4200 rpm) spin for 45 min. Acetone was then decanted and the plates were blotted to remove acetone. The plates were then dried in open air for 20 minutes. After drying, the plates were then covered with foil seal and stored at −80° C. overnight.\n(§2) The next day, samples were re-suspended in 90 μL of solution of 9M urea, 50 mM ammonium bicarbonate and 10 mM DTT by incubating at 65C for 20 min with shaking at 1500 rpm. Next, samples were cooled to 37° C. and then 10 μL of 500 mM iodoacetamide solution (92.48 mg/ml) was added. The samples were then incubated at 37° C. for 30 min with shaking at 600 rpm.\n(§3) ZEBA desalting plates were equilibrated 4 times using 250 μL of 2M urea, 50 mM ammonium bicarbonate solution followed by centrifugation at 1500 rpm for 2 minutes. After equilibration was complete, samples were applied to ZEBA desalting plate and spin at 1500 rpm for 2 min on top of 1 mL 96-well deep-well collection plate to buffer exchange samples. 4 μL of solution containing 25 mM CaCl2 and 0.25 mg/mL trypsin was added to the plate and the plate was then incubated at 37° C. for 2 hrs with shaking at 600 rpm. 300 μL of solution containing 5% high-capacity streptavidin agarose slurry in 25 mM Tris-HCl pH 7.5, 150 mM NaCl, and 0.1% NP-40 then added. The plate was incubated at 25° C. for 2 hrs with shaking at 600 rpm. Samples were transferred to 25 μm filter plate and spin at 1000 rpm for 2 min. Samples were then washed 3 times with 0.75 mL of wash buffer (25 mM Tris-HCl pH 7.5, 150 mM NaCl, and 0.1% NP-40) followed by washing 3 times with 0.75 mL PBS, and then 4 times with 0.75 mL water. After the washing step, samples were eluted into polypropylene 96-well plate by addition of 250 µL of 50% MeCN/water, 0.1% formic acid and allowed to gravity drip for 10 min, followed by centrifugation at 1000 rpm for 2 min. Speedvac was used to dry the plates at about 45° C. for […]. Then the plates were covered with foil seal and stored at −20° C.\n(§4) Samples were resuspended by addition of 20 μl of 12.5% ACN, 0.1% formic acid solution, covered with foil seal, and incubated at 42° C. for 10 minutes with shaking at 600 rpm. Then add 30 μL of 0.1% formic acid solution was added and the plate was covered and incubated at 42° C. for 10 minutes with shaking at 600 rpm. Seal plate was then sealed with a 96-well silicon mat for analysis."}, "[2]": {"target": "T1, RNF25 E3 ubiquitin-protein ligase RNF25 (Homo sapiens, UniProt Q96BH1)", "T1 sequence (Q96BH1 1-459)": "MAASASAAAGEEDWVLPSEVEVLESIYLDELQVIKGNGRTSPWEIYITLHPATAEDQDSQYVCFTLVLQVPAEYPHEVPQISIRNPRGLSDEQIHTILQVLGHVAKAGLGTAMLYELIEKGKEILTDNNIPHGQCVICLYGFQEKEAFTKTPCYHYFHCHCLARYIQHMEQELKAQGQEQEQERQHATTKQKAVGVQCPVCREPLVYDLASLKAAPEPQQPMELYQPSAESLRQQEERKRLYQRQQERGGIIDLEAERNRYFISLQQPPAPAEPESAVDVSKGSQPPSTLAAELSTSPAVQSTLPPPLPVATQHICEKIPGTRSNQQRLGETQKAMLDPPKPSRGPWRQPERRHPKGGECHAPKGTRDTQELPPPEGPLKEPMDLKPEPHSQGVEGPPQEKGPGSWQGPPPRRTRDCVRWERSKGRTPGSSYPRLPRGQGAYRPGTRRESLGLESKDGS", "experiment": "Cysteine liganding, probe competition", "set-up": "endogenous in cells", "method": "as §1, §2, §3, §4"}, "[3]": {"target": "T2, cysteine residue illustrated in Table 1A or Table 2A (Homo sapiens, UniProt A6NGE4)", "T2 construct": "Cells were resuspended in cold PBS on ice and sonicated with a probe sonicator to achieve lysis; endogenous in cells", "experiment": "Competitive cysteine profiling of cell lysate with desthiobiotin iodoacetamide probe (96-well sample prep)", "settings": "UniProt A6NGE4; 500 uM", "method": "(§5) In some embodiments, the solution sample (e.g., cell sample, cell lysate sample, or comprising isolated proteins) is incubated with a compound of Formula (I) for analysis of protein-probe interactions. In some instances, the solution sample (e.g., cell sample, cell lysate sample, or comprising isolated proteins) is further incubated in the presence of an additional compound probe prior to addition of the compound of Formula (I). […] In such instances, the solution sample is incubated with a probe and a ligand for competitive protein profiling analysis.\n(§6) The following 96-well sample prep protocol was used for sample preparation.\nas §1, §2, §3, §4"}, "[4]": {"target": "T3, cysteine residue illustrated in Table 1A or Table 2A (Homo sapiens, UniProt P0C7V8)", "T3 construct": "Cells were resuspended in cold PBS on ice and sonicated with a probe sonicator to achieve lysis; endogenous in cells", "experiment": "Competitive cysteine profiling of cell lysate with desthiobiotin iodoacetamide probe (96-well sample prep)", "settings": "UniProt P0C7V8; 500 uM", "method": "as §5, §6, §1, §2, §3, §4"}, "[5]": {"target": "T4, cysteine residue illustrated in Table 1A or Table 2A (Homo sapiens, UniProt Q9GZQ3)", "T4 construct": "Cells were resuspended in cold PBS on ice and sonicated with a probe sonicator to achieve lysis; endogenous in cells", "experiment": "Competitive cysteine profiling of cell lysate with desthiobiotin iodoacetamide probe (96-well sample prep)", "settings": "UniProt Q9GZQ3; 500 uM", "method": "as §5, §6, §1, §2, §3, §4"}, "[6]": {"target": "T5, cysteine residue illustrated in Table 1A or Table 2A (Homo sapiens, UniProt Q86X83)", "T5 construct": "Cells were resuspended in cold PBS on ice and sonicated with a probe sonicator to achieve lysis; endogenous in cells", "experiment": "Competitive cysteine profiling of cell lysate with desthiobiotin iodoacetamide probe (96-well sample prep)", "settings": "UniProt Q86X83", "method": "as §5, §6, §1, §2, §3, §4"}, "UniProt Q9C035": {"target": "T6, UniProt Q9C035 (Homo sapiens, UniProt Q9C035)", "T6 construct": "200 μL of lysate containing 5 mg/ml proteome was treated with 2 μL of 100× compound stock; endogenous in cells", "experiment": "Cysteine liganding, probe competition", "from_the_text": "as §6"}}, "note": "Like-named read-outs stand apart in the source and are kept apart here."}
{"smiles": "COc1ccc2c(c1)CCCN2C(=O)CCl", "note": "[KB02]", "values": [{"measurement": "inhibition at 100 µM", "setting": "[1]; 100 uM, UniProt Q96DE5, read-out: KB02_100 uM_percent_inhibition", "value": 46, "unit": "%"}, {"measurement": "inhibition at 500 µM", "setting": "[1]; 500 uM, UniProt Q96DE5, read-out: KB02_500 uM_percent_inhibition", "value": 85, "unit": "%"}, {"measurement": "Liganded", "setting": "[1]; ANAPC16 Res# 55, uniprot Q96DE5", "value": "YES"}, {"measurement": "Liganded", "setting": "[2]; RNF25 Res# 417, uniprot Q96BH1", "value": "YES"}, {"measurement": "KB02_500 uM_percent_inhibition", "setting": "[3]", "value": 55, "unit": "%"}, {"measurement": "KB02_500 uM_percent_inhibition", "setting": "[4]", "value": 55, "unit": "%"}, {"measurement": "KB02_500 uM_percent_inhibition", "setting": "[5]", "value": 11, "unit": "%"}, {"measurement": "KB02_100 uM_percent_inhibition", "setting": "[6]; 100 uM", "value": 31, "unit": "%"}, {"measurement": "KB02_500 uM_percent_inhibition", "setting": "[6]; 500 uM", "value": 83, "unit": "%"}, {"measurement": "inhibition at 100 µM", "setting": "UniProt Q9C035; read-out: KB02_100 uM_percent_inhibition", "value": 13, "unit": "%"}]}
{"smiles": "C=CC(=O)N(c1ccccc1)c1ccc(Br)cc1", "note": "[KB05]", "values": [{"measurement": "inhibition at 100 µM", "setting": "[1]; 100 uM, UniProt Q96DE5, read-out: KB05_100 uM_percent_inhibition", "value": 37, "unit": "%"}, {"measurement": "inhibition at 500 µM", "setting": "[1]; 500 uM, UniProt Q96DE5, read-out: KB05_500 uM_percent_inhibition", "value": 83, "unit": "%"}, {"measurement": "inhibition at 100 µM", "setting": "[2]; 100 uM, UniProt Q96BH1, read-out: percent_inhibition", "value": 11, "unit": "%"}, {"measurement": "KB05_500 uM_percent_inhibition", "setting": "[3]", "value": 63, "unit": "%"}, {"measurement": "KB05_500 uM_percent_inhibition", "setting": "[4]", "value": 63, "unit": "%"}, {"measurement": "KB05_500 uM_percent_inhibition", "setting": "[5]", "value": 56, "unit": "%"}, {"measurement": "KB05_100 uM_percent_inhibition", "setting": "[6]; 100 uM", "value": 38, "unit": "%"}, {"measurement": "KB05_500 uM_percent_inhibition", "setting": "[6]; 500 uM", "value": 78, "unit": "%"}, {"measurement": "inhibition at 100 µM", "setting": "UniProt Q9C035; read-out: KB05_100 uM_percent_inhibition", "value": 4, "unit": "%"}]}
{"smiles": "O=C(CCl)Nc1cc(C(F)(F)F)cc(C(F)(F)F)c1", "note": "[KBO3]", "values": [{"measurement": "KB03_100 uM_percent_inhibition", "setting": "[1]; 100 uM, UniProt Q96DE5", "value": 52, "unit": "%"}, {"measurement": "KB03_500 uM_percent_inhibition", "setting": "[1]; 500 uM, UniProt Q96DE5", "value": 82, "unit": "%"}, {"measurement": "500 Max", "setting": "[1]; uniprot Q96DE5", "value": 36.5}, {"measurement": "100 Max", "setting": "[1]; uniprot Q96DE5, unit assumed", "value": 20.4, "unit": "%"}, {"measurement": "100 ave", "setting": "[2]; uniprot Q96BH1", "value": 14.3}, {"measurement": "500 Max", "setting": "[2]; uniprot Q96BH1", "value": 62.0}, {"measurement": "500 ave", "setting": "[2]; uniprot Q96BH1", "value": 62.0}, {"measurement": "100 Max", "setting": "[2]; uniprot Q96BH1, unit assumed", "value": 14.3, "unit": "%"}, {"measurement": "KB03_500 uM_percent_inhibition", "setting": "[3]", "value": 41, "unit": "%"}, {"measurement": "KB03_500 uM_percent_inhibition", "setting": "[4]", "value": 41, "unit": "%"}, {"measurement": "KB03_500 uM_percent_inhibition", "setting": "[5]", "value": 24, "unit": "%"}, {"measurement": "KB03_100 uM_percent_inhibition", "setting": "[6]; 100 uM", "value": 35, "unit": "%"}, {"measurement": "KB03_500 uM_percent_inhibition", "setting": "[6]; 500 uM", "value": 72, "unit": "%"}, {"measurement": "KB03_100 uM_percent_inhibition", "setting": "UniProt Q9C035; 100 uM", "value": 18, "unit": "%"}]}
